How the values were obtained:
SW-620 [1] = assay: Reversal of resistance to paclitaxel-induced cytotoxicity in human SW-620/AD300 cells assessed as reduction in paclitaxel IC50 at 8 uM preincubated for 4 hrs followed by paclitaxel addition and measured after 72 hrs by MTT assay (reference value: 4.23 +/- 0.50 uM); format: functional, cell-based
SW-620 [2] = assay: Reversal of resistance to paclitaxel-induced cytotoxicity in human SW-620/AD300 cells assessed as reversal fold at 8 uM preincubated for 4 hrs followed by paclitaxel addition and measured after 72 hrs by MTT assay relative to paclitaxel; format: functional; conditions: time 76 hrs
SW-620 [3] = assay: Reversal of resistance to paclitaxel-induced cytotoxicity in human SW-620/AD300 cells assessed as reduction in paclitaxel IC50 at 20 uM preincubated for 4 hrs followed by paclitaxel addition and measured after 72 hrs by MTT assay (reference value: 4.23 +/- 0.50 uM); format: functional, cell-based
SW-620 [4] = assay: Reversal of resistance to paclitaxel-induced cytotoxicity in human SW-620/AD300 cells assessed as reversal fold at 20 uM preincubated for 4 hrs followed by paclitaxel addition and measured after 72 hrs by MTT assay relative to paclitaxel; format: functional; conditions: time 76 hrs
SW-620 [5] = assay: Reversal of resistance to paclitaxel-induced cytotoxicity in human SW-620/AD300 cells assessed as reversal fold at 6 uM preincubated for 4 hrs followed by paclitaxel addition and measured after 72 hrs by MTT assay relative to paclitaxel; format: functional; conditions: time 76 hrs
SW-620 [6] = assay: Reversal of resistance to paclitaxel-induced cytotoxicity in human SW-620/AD300 cells assessed as reduction in paclitaxel IC50 at 6 uM preincubated for 4 hrs followed by paclitaxel addition and measured after 72 hrs by MTT assay (reference value: 4.23 +/- 0.50 uM); format: functional, cell-based
SW-620 [7] = assay: cells; conditions: Homo sapiens
HEK293 [8] = assay: Reversal of resistance to paclitaxel-induced cytotoxicity in human HEK293/pcDNA3.1 cells assessed as reduction in paclitaxel IC50 at 4 uM preincubated for 4 hrs followed by paclitaxel addition and measured after 72 hrs by MTT assay (reference value: 1.93 +/- 0.06 nM); format: functional, cell-based
HEK293 [9] = assay: Reversal of resistance to paclitaxel-induced cytotoxicity in human HEK293/ABCB1 cells assessed as reduction in paclitaxel IC50 at 4 uM preincubated for 4 hrs followed by paclitaxel addition and measured after 72 hrs by MTT assay (reference value: 91.40 +/- 23.32 nM); format: functional, cell-based
KB 3-1 = assay: Reversal of resistance to paclitaxel-induced cytotoxicity in human KB 3-1 cells assessed as reduction in paclitaxel IC50 at 4 uM preincubated for 4 hrs followed by paclitaxel addition and measured after 72 hrs by MTT assay (reference value: 4.54 +/- 1.59 nM); format: functional, cell-based
SW-620 [10] = assay: cells; conditions: Homo sapiens; remark: listed apart in the source
KB-C2 = assay: Reversal of resistance to paclitaxel-induced cytotoxicity in human KB-C2 cells assessed as reduction in paclitaxel IC50 at 4 uM preincubated for 4 hrs followed by paclitaxel addition and measured after 72 hrs by MTT assay (reference value: 1886.37 +/- 243.05 nM); format: functional, cell-based
Mus musculus [11] = assay: Toxicity in BALB/c mouse xenografted with human SW-620/AD300 cells assessed as mortality at 5 mg/kg, iv administered once every 3 days; format: organism-based; conditions: in vivo, 72 h, time 3 day
SW-620 [12] = assay: Antitumor activity against human SW-620/AD300 cells xenografted in BALB/c nude mouse assessed as tumor growth inhibition at 5 mg/kg, iv administered once ever 3 days for 21 days; format: functional; set-up: scale not given: the % may be the effect or the level left
Mus musculus [13] = assay: Toxicity in BALB/c mouse xenografted with human SW-620/AD300 cells assessed as change in body weight at 5 mg/kg, iv administered once every 3 days; format: organism-based; conditions: in vivo, 72 h, time 3 day

With `O=C(/C=C/c1ccc2ccccc2c1)c1ccc(Nc2c3c(nc4ncnn24)CCC3)cc1` the IC50 (SW-620 [1]) was 1050 nM and the “fold change (FC)” value (SW-620 [2]) was 4.03.
`CC(=O)c1ccc(Nc2cc(C)nc3nc(SCc4nc5ccccc5[nH]4)nn23)cc1` was tested, and the IC50 (SW-620 [3]) was 1630 nM and the “fold change (FC)” value (SW-620 [4]) was 2.6.
With `Cc1cc(Nc2ccc(C(=O)/C=C/c3ccc4ccccc4c3)cc2)n2nc(SCCc3ccccc3)nc2n1` the “fold change (FC)” value (SW-620 [5]) was 6.31 and the IC50 (SW-620 [6]) was 670 nM.
`COc1ccc(CCN(C)CCCC(C#N)(c2ccc(OC)c(OC)c2)C(C)C)cc1OC` (stereo not given) gave an IC50 (SW-620 [7]) of 300 nM, an IC50 (HEK293 [8]) of 1.62 nM and an IC50 (HEK293 [9]) of 10400 nM. The IC50 (KB 3-1) was 3.84 nM, the IC50 (SW-620 [10]) was 7.11 nM and the IC50 (KB-C2) was 7.05 nM.
`CC(=O)O[C@H]1C(=O)[C@@]2(C)[C@H]([C@H](OC(=O)c3ccccc3)[C@]3(O)C[C@H](OC(=O)[C@H](O)[C@@H](NC(=O)c4ccccc4)c4ccccc4)C(C)=C1C3(C)C)[C@]1(OC(C)=O)CO[C@@H]1C[C@@H]2O` [PACLITAXEL] was tested, and the Activity (Mus musculus [11]) was “Non-Toxic”, the Activity (SW-620 [12]) was 32% and the Activity (Mus musculus [13]) was “Non-Toxic”.

— ChEMBL document CHEMBL5055665, “Discovery of the Triazolo[1,5-a]Pyrimidine-Based Derivative WS-898 as a Highly Efficacious and Orally Bioavailable ABCB1 Inhibitor Capable of Overcoming Multidrug Resistance” (J Med Chem, 2021)
